# Columns and labels:
# [1] = test system: influenza A virus A/England/195/2009; test: Example 1 ferret transmission study, real-time RT-PCR of nasal wash; type: in vivo; details: positive/total; for Sentinel DC ferrets positive for influenza as detected by the qRT-PCR: direct contact sentinels; for Sentinel RD ferrets positive for influenza as detected by the qRT-PCR: respiratory droplet sentinels
# Procedure: In this experiment baloxavir was administered once to ferrets as s.c. suspension with 1 mg/kg at 4 different locations in the back. Oseltamivir phosphate (5 mg/kg) was orally administered twice daily for 5 days.
# 24 hours post infection, the 4 infected ferrets were nasal washed. Nasal washes were assayed immediately by plaquing on fresh MDCK cells for infectious virus and carrying out RT-PCR for viral RNA load. Each donor ferret was then treated with either baloxavir, oseltamivir phosphate or vehicle only. Baloxavir was administered once subcutaneously in 4 locations on the back with 1 mg/l mL/kg per injection (total 4 mg/4 mL/kg). After dosing of baloxavir blood samples (minimum 200 μl) were collected from the donor animals at 48 h and 144 h, respectively, for pharmacokinetics (PK) analysis.
# A 5 mg/kg dose of oseltamivir phosphate was orally administered twice daily for 5 days, which is considered to be equivalent to the standard human adult dose of 75 mg for treatment (J Antimicrob Chemother 2014; 69: 2458-2469). After drug administration on day 1 one sentinel animal was introduced into same cage as each infected donor (DC animal) and one sentinel animal was introduced into adjacent cage (RD animal). Sentinel animals were not treated with any drug.
# All ferrets were nasal washed on day 2 and every subsequent day until experiment end starting with RD animals, then DC animals, and finishing with donors. Plaque assay was performed immediately on nasal wash. Virus RNA was also monitored by RT-PCR. Daily observation of clinical signs including temperature, weight loss and respiratory signs was performed. In addition, virus exhaled in breath from the 4 donor animals was monitored by placing them in a chamber for 10 minutes and sampling air using sentinel MDCK cells.
# 140 μl of ferret nasal wash was used to extract RNA using the Qiagen Viral RNA mini kit (Cat No./ID: 52904), according to manufacturer's instructions.
# Real-time PCR was performed using 7500 Real Time PCR system (ABI) in 20 μl reactions using AgPath-ID™ One-Step RT-PCR Reagents 10 μl RT-PCR buffer (2×) (Thermo Fisher, Cat. No. 4387391), 4 μl of RNA, 0.8 μl forward (5′[…] 3′, SEQ ID NO:1) and reverse primers (5′ […]3′, SEQ ID NO:2) and 0.4 μl probe (5′ FAM-[…]-BHQ1 3′, SEQ ID NO:3). Reverse transcription was carried out at 45° C. for 10 min. PCR amplification conditions consisted of 95° C. for 15 s and 60° C. for 1 min after an initial denaturation step at 95° C. for 10 min. In total 40 cycles were performed. For each sample, the Ct value for the target M gene was determined. M gene is an influenza gene encoding the 2 Matrix proteins M1 and M2. The M gene is detected in PCR and can be used to quantify the influenza virus. Based on the standard curves, absolute copy numbers were calculated to establish if the ferret was positive for influenza A.
# [2] = test system: A/Perth/265/2009 virus; test: Example 2 ferret contact transmission study, serology (HI assay) of recipient sera; type: in vivo; details: for recipients demonstrating antibody responses to donor virus (serology): positive/total
# Description: Sera were collected from endpoint recipient blood samples by centrifugation, and non-specific inhibitors of agglutination were removed by treatment with receptor-destroying enzyme (RDE) (Denka Seiken) according to manufacturer's instructions. Treated sera were adsorbed with turkey RBCs prior to HI assay to remove non-specific agglutination factors. Briefly, sera (initially 1:20 dilution) were serially diluted twofold in PBS in V-bottom 96-well plates (final row left as PBS negative control). A/Perth/265/2009 virus adjusted to 4 haemagglutination units in 25 μL was mixed to all sample wells for 1 hr incubation at room temperature, followed by 45 min incubation of 1% turkey RBC. […] HI titre was calculated as the reciprocal of the highest serum dilution at which agglutination was inhibited.
# This study consisted of three separate Experiments using different schedules of antiviral treatment and timing of naïve animal co-housing. In each experiment, twenty-four ferrets were randomly assigned to three groups (n=8): BXA, OST and placebo. Within each group, n=4 ferrets were designated as treated donor ferrets, and n=4 as naïve recipients. On 0 DPI (days post inoculation) for each experiment, all donor ferrets (each individually housed) were intranasally inoculated with influenza A/Perth/265/2009 at […] tissue culture infective doses (TCID50) in 40 μL of phosphate-buffered saline (PBS). As described above, donors in the BXA and placebo groups received a single antiviral treatment, whereas OST-group donors were treated daily until endpoint (excluding cull day). At the designated time point, naïve recipient ferrets were co-housed with treated donor ferrets (1:1 per cage) for a contact exposure period of 48 hr.
# Experiment 2: Antiviral treatment commenced at 1 DPI, and recipient co-housing was delayed until 24 hr following treatment (2 DPI). Body weight and temperature were monitored daily from all animals. Daily nasal wash samples were collected using 1 mL of PBS from 1 DPI to 4 DPI for donor animals, and 1 DPE to 10 DPE for recipient animals. Donors were sacrificed at 4 DPI (2 DPE), and blood was collected from BXA- and placebo-treated ferrets by cardiac puncture. Recipients were maintained until 16 DPE, at which time blood was collected by cardiac puncture.
# Experiment 3: Antiviral treatment commenced at 2 DPI, and recipients were co-housed immediately afterwards. Body weight and temperature were monitored daily from all animals. Daily nasal wash samples were collected using 1 mL of PBS from 1 DPI to 4 DPI for donor animals, and 1 DPE to 10 DPE for recipient animals. Donors were sacrificed at 4 DPI (2 DPE), and blood was collected from BXA- and placebo-treated ferrets by cardiac puncture. Recipients were maintained until 16 DPE, at which time blood was collected by cardiac puncture.
smiles,measurement,setting,value
"CCOC(=O)C1=C[C@@H](OC(CC)CC)[C@H](NC(C)=O)[C@@H](N)C1 [oseltamivir, oseltamivir phosphate, reference compound]",Sentinel DC ferrets positive for influenza as detected by the qRT-PCR,[1],4/4
same,Donor ferrets positive for influenza as detected by the qRT-PCR,[1],4/4
same,Sentinel RD ferrets positive for influenza as detected by the qRT-PCR,[1],4/4
same,recipients demonstrating antibody responses to donor virus (serology),[2]; Example 2 Experiment 2,4/4
"O=C1c2c(O)c(=O)ccn2N([C@@H]2c3ccccc3SCc3c2ccc(F)c3F)[C@@H]2COCCN12 [baloxavir, baloxavir acid]",Sentinel DC ferrets positive for influenza as detected by the qRT-PCR,[1],4/4
same,Donor ferrets positive for influenza as detected by the qRT-PCR,[1],4/4
same,Sentinel RD ferrets positive for influenza as detected by the qRT-PCR,[1],1/4
same,reduction of antibody responses in TCID50-negative recipients compared to titres in placebo-group recipients,[2]; Example 2 Exp. 2 and 3,16-32 fold
same,reduction of antibody response in TCID50-negative ferret compared to TCID50-positive ferrets,"[2]; Example 2 Experiment 2, baloxavir-group recipient",> 32 fold change
same,recipients demonstrating antibody responses to donor virus (serology),[2]; Example 2 Experiment 2,2/4
same,reduction of antibody titres in TCID50-negative recipients compared to TCID50-positive ferrets,"[2]; Example 2 Experiment 3, TCID50-negative baloxavir-group recipients (2/4)",> 16 fold change

# Reference: US11911394B2, “Compound and method for the prevention of transmission of influenza virus” (Hoffmann-La Roche Inc., priority 2019, dated 2024)
